Some results are limits rather than exact numbers.

One assay has as its target T1, Chk1 (Homo sapiens, UniProt O14757).
T1 construct: purchased Upstate Biotechnology
T1 sequence (O14757 1-476): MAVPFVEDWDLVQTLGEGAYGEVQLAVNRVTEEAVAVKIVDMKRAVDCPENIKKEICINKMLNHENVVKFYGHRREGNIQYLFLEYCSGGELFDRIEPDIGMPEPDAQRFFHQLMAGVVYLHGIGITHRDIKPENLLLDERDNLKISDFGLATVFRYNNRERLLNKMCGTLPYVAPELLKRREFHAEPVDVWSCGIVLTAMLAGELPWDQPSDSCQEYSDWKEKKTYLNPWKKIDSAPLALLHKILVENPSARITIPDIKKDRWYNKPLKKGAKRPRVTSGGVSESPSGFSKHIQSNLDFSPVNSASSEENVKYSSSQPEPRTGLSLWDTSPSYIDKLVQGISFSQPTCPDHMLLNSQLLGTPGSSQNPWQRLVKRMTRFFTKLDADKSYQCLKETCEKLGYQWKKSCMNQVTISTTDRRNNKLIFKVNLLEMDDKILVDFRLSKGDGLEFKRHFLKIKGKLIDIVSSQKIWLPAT
Nature of the assay: Chk1 kinase assay: incorporation of γ-33P ATP into immobilized myelin basic protein. To be noted: Table 11, Chk1 only; class symbols A-D; read-out: Chk1 IC50. It is filed as biochemical. In short, it runs like this:
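Read-out is scintillation counting of 33P incorporated into plate-bound myelin basic protein. Chk1 runs at 10 nM enzyme with 10 μM ATP, Chk2 at 20 nM with 30 μM ATP, each for 1 hour at room temperature. Duplicate points; IC50 taken as 50% activity reduction, Ki computed from IC50.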
The IC50 is the concentration that gives 50% inhibition. With `Nc1ncc(-c2cccc(NC(=O)c3ccccc3-c3ccc(C(F)(F)F)cc3)c2)nc1C(=O)N[C@H]1CCCNC1` [Example 912, 3-amino-N-[(3S)-piperidin-3-yl]-6-[3-({[4′-(trifluoromethyl)biphenyl-2-yl]carbonyl}amino)phenyl]pyrazine-2-carboxamide], the half-inhibitory concentration (IC50) is below 50 nM. For the compound `Nc1ncc(-c2cccc(C(=O)NCc3cc(C(F)(F)F)ccc3F)c2)nc1C(=O)N[C@H]1CCCNC1` [Example 998, 3-amino-6-{3-[({[2-fluoro-5-(trifluoromethyl)phenyl]methyl}amino)carbonyl]phenyl}-N-[(3S)-piperidin-3-yl]pyrazine-2-carboxamide], the IC50 is below 50 nM. Consider `NCc1cccc(-c2cnc(N)c(-c3nc([C@H]4CCCNC4)n[nH]3)n2)c1` [Example 923, 5-[3-(aminomethyl)phenyl]-3-{3-[(3S)-piperidin-3-yl]-1H-1,2,4-triazol-5-yl}pyrazin-2-amine], for which the IC50 was below 50 nM. As for `Cc1cc(C(=O)Nc2cccc(-c3cnc(N)c(C(=O)N[C@H]4CCCNC4)n3)c2)n(C)n1` [Example 902, 3-amino-6-(3-{[(1,3-dimethyl-1H-pyrazol-5-yl)carbonyl]amino}phenyl)-N-[(3S)-piperidin-3-yl]pyrazine-2-carboxamide], the half-maximal inhibitory concentration (IC50) is below 50 nM.

The assay is the same for the next values; noted with them: Table 11; Chk1 only; read-out: Chk1 IC50.
`CSc1ccc(CNC(=O)c2cccc(-c3cnc(N)c(C(=O)N[C@H]4CCNC4)n3)c2)cc1` [Example 747, 3-amino-6-{3-[({[4-(methylthio)phenyl]methyl}amino)carbonyl]phenyl}-N-[(3S)-pyrrolidin-3-yl]pyrazine-2-carboxamide]: the IC50 is below 50 nM. `N=C(NN1CCCCC1)c1nc(-c2cccc(C(=O)NCc3ccccc3)c2)cnc1N` [Example 622, 3-{5-amino-6-[imino(piperidin-1-ylamino)methyl]pyrazin-2-yl}-N-(phenylmethyl)benzamide]: the IC50 was at least 10000 nM.

Take `CNC(=O)c1nc(-c2cccc(CNC3CCc4cc(CCCO)ccc43)c2)cnc1N` (centres unmarked) [Example 527]: the concentration for half-maximal inhibition (IC50) is below 50 nM. In the case of `COC(=O)C1CCCN(C(=O)c2nc(-c3cccc(C(=O)NCc4ccccc4)c3)cnc2N)C1` (centres unmarked) [Example 591, methyl 1-{[3-amino-6-(3-{[(phenylmethyl)amino]carbonyl}phenyl)pyrazin-2-yl]carbonyl}piperidine-3-carboxylate], the IC50 was at least 10000 nM. In the case of `Cn1nc(-c2nc(-c3cccc(C(=O)NCc4ccccc4)c3)cnc2N)nc1-c1ccccc1` [Example 672, 3-[5-amino-6-(1-methyl-5-phenyl-1H-1,2,4-triazol-3-yl)pyrazin-2-yl]-N-(phenylmethyl)benzamide], the IC50 was at least 10000 nM. For the compound `CNC(=O)c1nc(-c2cccc(CN[C@H](C(=O)OC)c3ccccc3)c2)cnc1N` [Example 429, methyl (2S)-{[(3-{5-amino-6-[(methylamino)carbonyl]pyrazin-2-yl}phenyl)methyl]amino}(phenyl)ethanoate], the IC50 lay in the range of 1000 to 10000 nM.

Still in this assay, the particulars now being: read-out: Chk1 IC50.
`CNC(=O)c1nc(-c2cccc(C(=O)NCc3cc(Cl)ccc3Cl)c2)cnc1N` [Example 248, 3-amino-6-[3-({[(2,5-dichlorophenyl)methyl]amino}carbonyl)phenyl]-N-methylpyrazine-2-carboxamide]: the IC50 was in the range of 50 to 1000 nM. For `CNC(=O)c1nc(-c2cncc(C(=O)NCc3ccccc3-c3ccccc3)c2)cnc1N` [Example 401, 3-amino-6-(5-{[(biphenyl-2-ylmethyl)amino]carbonyl}pyridin-3-yl)-N-methylpyrazine-2-carboxamide], the IC50 lay within 50 to 1000 nM. For the compound `CNC(=O)c1nc(-c2cccc(C(=O)NCc3cccc(OC(F)(F)F)c3)c2)cnc1N` [Example 218, 3-amino-N-methyl-6-(3-{[({3-[(trifluoromethyl)oxy]phenyl}methyl)amino]carbonyl}phenyl)pyrazine-2-carboxamide], the IC50 lay in the range of 1000 to 10000 nM. With `CNC(=O)c1nc(-c2cccc(NC(=O)Nc3ccc(OC)cc3)c2)cnc1N` [Example 90, 3-amino-N-methyl-6-{3-[({[4-(methyloxy)phenyl]amino}carbonyl)amino]phenyl}pyrazine-2-carboxamide], the IC50 lay within 50 to 1000 nM.

Values taken from patent publication US7704995B2 (Exelixis, Inc., priority 2003, dated 2010).
